Results published in patent EP1247803A2, “Indolinone compounds suitable for modulation of protein kinases” (Sugen, Inc., priority 1996, dated 1998).

Target: T1, EGFR (Homo sapiens, UniProt P00533)
T1 construct: Add 7 ug A431 cell lysate per well (EGFR source); endogenous in cells; host or cells: A431
Experiment: EGFR ELISA assay (in vitro kinase activity, EGFR captured from A431 cell lysate)
Assay type: biochemical
Set-up: concentration or dose not given beside the values
Method in brief: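 Receptor autophosphorylation was read by ELISA: anti-phosphotyrosine serum and an HRP-linked secondary with ABTS substrate, absorbance at 410 nm (reference 630 nm). The reaction ran 5 min with 3 µM ATP and 5 mM MnCl2 and was quenched by 20 mM EDTA. Compounds were first incubated 30 min with antibody-captured EGFR from A431 cell lysate.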

T1 sequence (P00533 25-1210): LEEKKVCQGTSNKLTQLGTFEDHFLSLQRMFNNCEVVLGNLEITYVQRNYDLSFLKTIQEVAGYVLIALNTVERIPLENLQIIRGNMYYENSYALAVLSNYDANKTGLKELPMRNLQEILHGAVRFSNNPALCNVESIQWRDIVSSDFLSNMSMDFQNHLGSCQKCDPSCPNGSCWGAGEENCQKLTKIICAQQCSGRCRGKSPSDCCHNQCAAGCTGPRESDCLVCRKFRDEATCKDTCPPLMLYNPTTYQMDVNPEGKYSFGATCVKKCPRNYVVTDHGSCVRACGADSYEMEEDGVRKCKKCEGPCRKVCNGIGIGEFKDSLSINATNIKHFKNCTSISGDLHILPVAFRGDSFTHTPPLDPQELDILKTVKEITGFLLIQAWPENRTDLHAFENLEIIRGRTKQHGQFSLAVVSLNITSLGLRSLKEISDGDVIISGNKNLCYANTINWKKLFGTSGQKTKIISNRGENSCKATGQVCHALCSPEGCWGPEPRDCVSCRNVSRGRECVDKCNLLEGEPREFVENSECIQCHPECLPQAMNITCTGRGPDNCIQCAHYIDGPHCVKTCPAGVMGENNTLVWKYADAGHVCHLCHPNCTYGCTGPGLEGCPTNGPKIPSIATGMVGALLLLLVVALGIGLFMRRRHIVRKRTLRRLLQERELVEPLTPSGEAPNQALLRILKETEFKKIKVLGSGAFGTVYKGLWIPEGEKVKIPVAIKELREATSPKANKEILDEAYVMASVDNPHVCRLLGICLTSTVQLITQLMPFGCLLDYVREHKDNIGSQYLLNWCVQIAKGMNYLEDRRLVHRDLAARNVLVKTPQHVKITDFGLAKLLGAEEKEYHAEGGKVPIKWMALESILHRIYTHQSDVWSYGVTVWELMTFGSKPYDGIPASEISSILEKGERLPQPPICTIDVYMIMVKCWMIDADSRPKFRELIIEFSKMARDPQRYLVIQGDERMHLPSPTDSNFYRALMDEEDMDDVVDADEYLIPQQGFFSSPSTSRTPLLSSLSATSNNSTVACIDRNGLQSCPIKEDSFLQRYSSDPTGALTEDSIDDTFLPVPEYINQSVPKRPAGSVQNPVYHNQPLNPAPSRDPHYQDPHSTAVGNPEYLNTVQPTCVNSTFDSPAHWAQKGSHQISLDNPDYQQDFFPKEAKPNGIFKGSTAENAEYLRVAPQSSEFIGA

SMILES | Biochem EGFR %Inhibition
CNS(=O)(=O)c1ccc2c(c1)C(=Cc1ccc(N(C)C)cc1OC)C(=O)N2 [10728/D05] | 12.7%
CNS(=O)(=O)c1ccc2c(c1)C(=Cc1ccc3c(c1)Cc1ccccc1-3)C(=O)N2 [10728/D06] | 5.8%
